Results published in the supplement of paper PMC11424490.
Structures can show the parent of a compound that is named as a salt.

Assays:
NCI-H2122 [1] = test: combination cScore with adagrasib (Bliss gap around IC50) (%PoC); higher = stronger additive effect
Method: (§1)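 Combination screen of 179 inhibitors with the KRAS G12C inhibitor adagrasib (MRTX849) in dose matrices, CellTiter-Glo readout in NCI-H2122 (72 h), SW837 (144 h) and NCI-H358 cells. The cScore is the mean Bliss-independence gap (expected minus observed viability, in %PoC) over a 3x3 field around the IC50s of both drugs. Positive means additive, and >~10 is stated as clear additive.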

SW837 [2] = test: as above
Method: as §1

NCI-H2122 [3] = test: fitted bottom plateau of viability curve, % of DMSO control; higher = less maximal inhibition; extreme values may be limits of the assay
Method: (§2)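 CellTiter-Glo proliferation assay in KRAS G12C mutant NCI-H2122 (72 h), SW837 (144 h) and NCI-H358 cells in 384-well plates. Monotherapy dose response was fitted with a four-parameter curve after normalisation to DMSO controls (% of control, PoC). IC50 is the relative IC50, averaged over replicates. Bottom is the fitted lower plateau in %PoC; Max.Conc. is the top dose tested.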

SW837 [4] = test: as above
Method: as §2

NCI-H2122 [5] = test: combination cScore with sotorasib (Bliss gap around IC50) (%PoC); higher = stronger additive effect
Method: as §1, with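 “sotorasib (AMG510)” for “adagrasib (MRTX849)”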

Row | Structure (SMILES) | combination cScore with adagrasib (NCI-H2122 [1]) | combination cScore with adagrasib (SW837 [2]) | fitted bottom plateau of viability curve (NCI-H2122 [3]) | fitted bottom plateau of viability curve (SW837 [4]) | combination cScore with sotorasib (NCI-H2122 [5])
1 | CCc1cnn2c(NCc3ccc[n+]([O-])c3)cc(N3CCCC[C@H]3CCO)nc12 + C=C(F)C(=O)N1CCN(c2nc(OC[C@@H]3CCCN3C)nc3c2CCN(c2cccc4cccc(Cl)c24)C3)C[C@@H]1CC#N [adagrasib] | -0.08 | 0.92 |  |  | 
2 | CN(C)CCCC(=O)Nc1n[nH]c2nnc(-c3ccccc3)cc12 + C=C(F)C(=O)N1CCN(c2nc(OC[C@@H]3CCCN3C)nc3c2CCN(c2cccc4cccc(Cl)c24)C3)C[C@@H]1CC#N [adagrasib] | -12.3 | -2.5 |  |  | 
3 | COc1ccc(Cn2ccc3ccc(C(=O)NO)cc32)cc1 + C=C(F)C(=O)N1CCN(c2nc(OC[C@@H]3CCCN3C)nc3c2CCN(c2cccc4cccc(Cl)c24)C3)C[C@@H]1CC#N [adagrasib] | 2.01 | 1.45 |  |  | 
4 | COc1ccc2nc3ccc(OC)cc3c(SCCCN)c2c1 + C=C(F)C(=O)N1CCN(c2nc(OC[C@@H]3CCCN3C)nc3c2CCN(c2cccc4cccc(Cl)c24)C3)C[C@@H]1CC#N [adagrasib] | 7.77 | -2.24 |  |  | 
5 | C[C@@H](Oc1cc(-c2cnn(C3CCNCC3)c2)cnc1N)c1c(Cl)ccc(F)c1Cl + C=C(F)C(=O)N1CCN(c2nc(OC[C@@H]3CCCN3C)nc3c2CCN(c2cccc4cccc(Cl)c24)C3)C[C@@H]1CC#N [adagrasib] | 6.58 | 12.7 |  |  | 
6 | Cc1[nH]c(/C=C2\C(=O)Nc3ccc(S(=O)(=O)Cc4c(Cl)cccc4Cl)cc32)c(C)c1C(=O)N1CCC[C@@H]1CN1CCCC1 + C=C(F)C(=O)N1CCN(c2nc(OC[C@@H]3CCCN3C)nc3c2CCN(c2cccc4cccc(Cl)c24)C3)C[C@@H]1CC#N [adagrasib] | 6.94 | -0.48 |  |  | 
7 | NC(=O)c1cnc(N[C@@H]2CCCC[C@@H]2N)nc1Nc1cccc(-n2nccn2)c1 + C=C(F)C(=O)N1CCN(c2nc(OC[C@@H]3CCCN3C)nc3c2CCN(c2cccc4cccc(Cl)c24)C3)C[C@@H]1CC#N [adagrasib] | 11.8 | 3.74 |  |  | 
8 | O=[N+]([O-])c1ccc(NCCNc2ncc(-c3ncc[nH]3)c(-c3ccc(Cl)cc3Cl)n2)nc1 + C=C(F)C(=O)N1CCN(c2nc(OC[C@@H]3CCCN3C)nc3c2CCN(c2cccc4cccc(Cl)c24)C3)C[C@@H]1CC#N [adagrasib] | -12.7 | 5.65 |  |  | 
9 | On1ncc2cc(CCc3nn[nH]n3)ccc21 + C=C(F)C(=O)N1CCN(c2nc(OC[C@@H]3CCCN3C)nc3c2CCN(c2cccc4cccc(Cl)c24)C3)C[C@@H]1CC#N [adagrasib] | 7.37 | -2.04 |  |  | 
10 | CC[C@H](C)C(=O)O[C@H]1C[C@@H](C)C=C2C=C[C@H](C)[C@H](CC[C@@H]3C[C@@H](O)CC(=O)O3)[C@H]21 [Lovastatin] (top concentration tested 10000 nM) |  |  | 56.1% | 83.6% | 
11 | Cc1ccc(NC(=O)c2ccc(CN3CCN(C)CC3)cc2)cc1Nc1nc(-c2cccnc2)cs1 [Masitinib] (top concentration tested 1000.1 nM) |  |  | 79.5% | 95.6% | 
12 | C[C@H](Cc1ccc(O)c(O)c1)[C@@H](C)Cc1ccc(O)c(O)c1 [Masoprocol] (top concentration tested 9999.8 nM) |  |  | 71.4% | 86.2% | 
13 | CN(C)C(=N)NC(=N)N [Metformin] (top concentration tested 50000 nM) |  |  | 76.5% | 97.5% | 
14 | CN1CCN(c2ccc(-c3cccc(CN4CCOCC4)c3)cc2NC(=O)c2c[nH]c(=O)cc2C(F)(F)F)CC1 [OICR-9429] (top concentration tested 10000 nM) |  |  | 62.6% | 95.4% | 
15 | N[C@H]1CC[C@H](N[C@@H]2C[C@H]2c2ccccc2)CC1 [ORY-1001] (top concentration tested 49.848 nM) |  |  | 68.1% | 90.5% | 
16 | N[C@H]1CC[C@H](N[C@@H]2C[C@H]2c2ccccc2)CC1 [ORY-1001] + C=CC(=O)N1CCN(c2nc(=O)n(-c3c(C)ccnc3C(C)C)c3nc(-c4c(O)cccc4F)c(F)cc23)[C@@H](C)C1 [sotorasib] |  |  |  |  | 8.65

Row | Structure (SMILES) | combination cScore with adagrasib (NCI-H2122 [1]) | combination cScore with adagrasib (SW837 [2]) | fitted bottom plateau of viability curve (NCI-H2122 [3]) | fitted bottom plateau of viability curve (SW837 [4]) | combination cScore with sotorasib (NCI-H2122 [5])
17 | CCCS(=O)(=O)Nc1ccc(F)c(C(=O)c2c[nH]c3ncc(Cl)cc23)c1F [PLX4720] (top concentration tested 10000 nM) |  |  | 73.6% | 101% | 
18 | CCCS(=O)(=O)Nc1ccc(F)c(C(=O)c2c[nH]c3ncc(Cl)cc23)c1F [PLX4720] + C=C(F)C(=O)N1CCN(c2nc(OC[C@@H]3CCCN3C)nc3c2CCN(c2cccc4cccc(Cl)c24)C3)C[C@@H]1CC#N [adagrasib] |  | -5.68 |  |  | 
19 | Cc1[nH]c2ccccc2c1CCNCc1ccc(/C=C/C(=O)NO)cc1 [Panobinostat] + C=CC(=O)N1CCN(c2nc(=O)n(-c3c(C)ccnc3C(C)C)c3nc(-c4c(O)cccc4F)c(F)cc23)[C@@H](C)C1 [sotorasib] |  |  |  |  | 0.52
20 | Cc1ccc(Nc2nccc(N(C)c3ccc4c(C)n(C)nc4c3)n2)cc1S(N)(=O)=O [Pazopanib] (top concentration tested 10000 nM) |  |  | 80.9% | 91.9% | 
21 | CC(C)(C)c1cc(NC(=O)Nc2ccc(-c3cn4c(n3)sc3cc(OCCN5CCOCC5)ccc34)cc2)no1 [Quizartinib] (top concentration tested 1000.1 nM) |  |  | 79.3% | 94.1% | 
22 | CO[C@H]1C[C@@H]2CC[C@@H](C)[C@@](O)(O2)C(=O)C(=O)N2CCCC[C@H]2C(=O)O[C@H]([C@H](C)C[C@@H]2CC[C@@H](O)[C@H](OC)C2)CC(=O)[C@H](C)/C=C(\C)[C@@H](O)[C@@H](OC)C(=O)[C@H](C)C[C@H](C)/C=C/C=C/C=C/1C [Rapamycin] (top concentration tested 1000 nM) |  |  | 64.1% | 88.4% | 
23 | CNC(=O)c1cc(Oc2ccc(NC(=O)Nc3ccc(Cl)c(C(F)(F)F)c3)c(F)c2)ccn1 [Regorafenib] (top concentration tested 999.95 nM) |  |  | 82.1% | 92.7% | 
24 | N#CC[C@H](C1CCCC1)n1cc(-c2ncnc3[nH]ccc23)cn1 [Ruxolitinib] (top concentration tested 9999.9 nM) |  |  | 73.3% | 88.3% | 
25 | CNC(=O)c1cc(Oc2ccc(NC(=O)Nc3ccc(Cl)c(C(F)(F)F)c3)cc2)ccn1 [Sorafenib] (top concentration tested 999.95 nM) |  |  | 84.3% | 92.6% | 
26 | Cn1nnc2c(C(N)=O)ncn2c1=O [Temozolomide] (top concentration tested 50000 nM) |  |  | 83.2% | 93.2% | 
27 | C[C@@H]1CCN(C(=O)CC#N)C[C@@H]1N(C)c1ncnc2[nH]ccc12 [Tofacitinib citrate] (top concentration tested 10000 nM) |  |  | 63% | 99% | 
28 | CC1=C(/C=C/C(C)=C/C=C/C(C)=C/C(=O)O)C(C)(C)CCC1 [Tretinoin] (top concentration tested 10000 nM) |  |  | 78.8% | 105% | 
29 | CC(C)Nc1cc(-c2c[nH]c(C(=O)N[C@H](CO)c3cccc(Cl)c3)c2)c(Cl)cn1 [Ulixertinib] (top concentration tested 99.921 nM) |  |  | 64.5% | 97.1% | 
30 | CCCC(CCC)C(=O)O [Valproic acid] (top concentration tested 10000 nM) |  |  | 72.1% | 92.8% | 
31 | C[C@]1(c2nc3c(C(N)=O)cccc3[nH]2)CCCN1 [Veliparib] (top concentration tested 10000 nM) |  |  | 93.6% | 102% | 
32 | CS(=O)(=O)c1ccc(C(=O)Nc2ccc(Cl)c(-c3ccccn3)c2)c(Cl)c1 [Vismodegib] (top concentration tested 10000 nM) |  |  | 91.1% | 103% | 
